pIC50: −log10 of the molar value.
Assays:
11-β-HSD1 = biological target: T1, 11-β-HSD1 (Homo sapiens, UniProt P28845); assay: Human aortic smooth muscle cell assay; assay type: cell-based; settings: primary human AoSMC, hTNFα-induced 11-β-HSD1, cortisol immunoassay
T1 construct: assay medium containing 12 ng/mL hTNFα to induce expression of 11-β-HSD1; endogenous in cells; host or cells: primary human aortic smooth muscle cells (AoSMC), induced with hTNFα
Description: Human Aortic Smooth Muscle Cell Assay
Primary human aortic smooth muscle cells (AoSMC) are cultured in 5% FBS growth medium to a passage number of 6, then pelleted by centrifugation and resuspended at a density of 9×10^4 cells/mL in 0.5% FBS assay medium containing 12 ng/mL hTNFα to induce expression of 11-β-HSD1. Cells are seeded into 96-well tissue culture assay plates at 100 μL/well (9×10^3 cells/well) and incubated for 48 hours at 37° C., 5% CO2. Following induction, cells are incubated for 4 hours at 37° C., 5% CO2 in assay medium containing test compounds then treated with 10 μL/well of 10 μM cortisone solubilized in assay medium, and incubated for 16 hours at 37° C., 5% CO2. Medium from each well is transferred to a plate for subsequent analysis of cortisol using a competitive fluorescence resonance time resolved immunoassay. In solution, an allophycocyanin (APC)-cortisol conjugate and free cortisol analyte compete for binding to a mouse anti-cortisol antibody/Europium (Eu)-anti mouse IgG complex. Higher levels of free cortisol result in diminishing energy transfer from the Europium-IgG to the APC-cortisol complex resulting in less APC fluorescence. Fluorescent intensities for Europium and APC are measured using a LJL Analyst AD. Europium and APC excitation is measured using 360 nm excitation and 615 nm and 650 nm emission filters respectively. Time resolved parameters for Europuium were 1000 μs integration time with a 200 μs delay. APC parameters are set at 150 μs integration time with a 50 μs delay. Fluorescent intensities measured for APC are modified by dividing by the Eu fluorescence (APC/Eu). This ratio is then used to determine the unknown cortisol concentration by interpolation using a cortisol standard curve fitted with a 4-parameter logistic equation. These concentrations are then used to determine compound activity by plotting concentration versus % inhibition, fitting with a 4-parameter curve and reporting the IC50.

cortisone conversion = assay: Acute in vivo cortisone conversion assay; settings: Mus musculus; male C57BL/6 mice, oral dose 10 mg/kg, cortisone challenge 16 hours post dose, serum cortisol; read-out: % Inhibition after 16 hours (dose of 10 (mg/kg))
Description: Acute In Vivo Cortisone Conversion Assay
In general, compounds are dosed orally into mice, the mice are challenged with a subcutaneous injection of cortisone at a set timepoint after compound injection, and the blood of each animal is collected some time later. Separated serum is then isolated and analyzed for levels of cortisone and cortisol by LC-MS/MS, followed by calculation of mean cortisol and percent inhibition of each dosing group. Specifically, male C57BL/6 mice are obtained from Harlan Sprague Dawley at average weight of 25 grams. Exact weights are taken upon arrival and the mice randomized into groups of similar weights. Compounds are prepared in 1% w-w HEC, 0.25% w-w polysorbate 80, 0.05% w-w Dow Corning antifoam #1510-US at various doses based on assumed average weight of 25 grams. Compounds are dosed orally, 200 μl per animal, followed by a subcutaneous dose, 200 μl per animal, of 30 mg/kg cortisone at 1 to 24 hours post compound dose. At 10 minutes post cortisone challenge, each animal is euthanized for 1 minute in a CO2 chamber, followed by blood collection via cardiac puncture into serum separator tubes. Once fully clotted, tubes are spun at 2500×g, 4° C. for 15 minutes, the serum transferred to wells of 96-well plates (Corning Inc, Costar #4410, cluster tubes, 1.2 ml, polypropylene), and the plates are frozen at −20° C. until analysis by LC-MS/MS. For analysis, serum samples are thawed and the proteins are precipitated by the addition of acetonitrile containing d4-cortisol internal standard. Samples are vortex mixed and centrifuged. The supernatant is removed and dried under a stream of warm nitrogen. Extracts are reconstituted in methanol/water (1:1) and injected onto the LC-MS/MS system. The levels of cortisone and cortisol are assayed by selective reaction monitoring mode following positive ACPI ionization on a triple quadrupole mass spectrophotometer.

11-βHSD2 enzyme = biological target: T2, 11-βHSD2 enzyme (Homo sapiens, UniProt P80365); assay: Selectivity against 11-βHSD2 in an enzyme assay similar to the 11β-HSD type 1 enzyme assay; assay type: biochemical; settings: 11-βHSD1 versus 11-βHSD2 enzyme
T2 sequence (P80365 1-405): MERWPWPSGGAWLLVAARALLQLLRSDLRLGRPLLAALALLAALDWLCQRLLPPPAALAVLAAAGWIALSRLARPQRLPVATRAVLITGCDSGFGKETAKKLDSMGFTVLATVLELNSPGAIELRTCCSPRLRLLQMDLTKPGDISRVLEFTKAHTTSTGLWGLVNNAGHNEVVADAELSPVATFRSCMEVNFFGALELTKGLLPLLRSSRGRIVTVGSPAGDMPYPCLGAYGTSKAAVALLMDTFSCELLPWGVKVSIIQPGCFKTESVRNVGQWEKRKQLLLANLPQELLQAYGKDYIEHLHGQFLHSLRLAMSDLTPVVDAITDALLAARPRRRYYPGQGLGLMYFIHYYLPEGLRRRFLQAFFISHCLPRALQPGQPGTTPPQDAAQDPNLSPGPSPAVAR
Description: 11β-HSD Type 1 Enzyme Assay
Human 11β-HSD type 1 activity is measured by assaying NADPH production by fluorescence assay. Solid compounds are dissolved in DMSO to a concentration of 10 mM. Twenty microliters of each are then transferred to a column of a 96-well polypropylene Nunc plate where they are further diluted 50-fold followed by subsequent two-fold titration, ten times across the plate with additional DMSO using a Tecan Genesis 200 automated system. Plates are then transferred to a Tecan Freedom 200 system with an attached Tecan Temo 96-well head and an Ultra 384 plate reader. Reagents are supplied in 96-well polypropylene Nunc plates and are dispensed individually into black 96-well Molecular Devices High Efficiency assay plates (40 μL/well capacity) in the following fashion: 9 μL/well of substrate (2.22 mM NADP, 55.5 μM Cortisol, 10 mM Tris, 0.25% Prionex, 0.1% Triton X100), 3 μL/well of water to compound wells or 3 μL to control and standard wells, 6 μL/well recombinant human 11β-HSD type 1 enzyme, 2 μL/well of compound dilutions. […] Plates are then shaken once more for 15 seconds then placed into an Ultra 384 microplate reader (355EX/460EM) for detection of NADPH fluorescence. […]

T1 sequence (P28845 whole entry): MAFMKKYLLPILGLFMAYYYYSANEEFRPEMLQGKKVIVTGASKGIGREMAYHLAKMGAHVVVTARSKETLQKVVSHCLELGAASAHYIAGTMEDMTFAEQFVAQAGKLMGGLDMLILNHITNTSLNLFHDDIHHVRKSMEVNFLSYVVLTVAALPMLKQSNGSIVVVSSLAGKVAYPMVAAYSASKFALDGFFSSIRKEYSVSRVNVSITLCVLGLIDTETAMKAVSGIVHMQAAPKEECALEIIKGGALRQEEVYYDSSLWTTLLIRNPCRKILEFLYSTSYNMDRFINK

Row | Structure (SMILES) | pIC50 (11-β-HSD1) | inhibition at 10 mg/kg (cortisone conversion) [%] | fold greater inhibition of 11-βHSD1 enzyme as compared to the inhibition of 11-βHSD2 (11-βHSD2 enzyme) [fold]
1 | O=C1[C@H](Cc2c(Cl)cc(-c3ccc(F)cc3)cc2Cl)CCN1N1CCC(O)CC1 [Example 6, (R)-3-(3,5-Dichloro-4′-fluoro-biphenyl-4-ylmethyl)-1-(4-hydroxy-piperidin-1-yl)-pyrrolidin-2-one Trifluoro Acetate] | 8.24 | 55 | –
2 | O=C(c1ccc(-c2cc(Cl)c(C[C@@H]3CCN(N4CCC(O)CC4)C3=O)c(Cl)c2)cc1)N1CCC(F)(F)CC1 [Example 8, (R)-3-[3,5-Dichloro-4′-(4,4-difluoro-piperidine-1-carbonyl)-biphenyl-4-ylmethyl]-1-(4-hydroxy-piperidin-1-yl)-pyrrolidin-2-one] | 7.37 | 94 | –
3 | O=C(c1ccc(-c2cc(Cl)c(C[C@@H]3CCN(N4CCC(O)CC4)C3=O)c(Cl)c2)cc1)N1CCC(C(F)(F)F)CC1 [Example 7, (R)-3-[3,5-Dichloro-4′-(4-trifluoromethyl-piperidine-1-carbonyl)-biphenyl-4-ylmethyl]-1-(4-hydroxy-piperidin-1-yl)-pyrrolidin-2-one] | 7.84 | 98 | 145
4 | O=C(c1ccc(-c2cc(Cl)c(C[C@@H]3CCN(N4CCOCC4)C3=O)c(Cl)c2)cc1)N1CCC(C(F)(F)F)CC1 [Example 3, (R)-3-[3,5-Dichloro-4′-(4-trifluoromethyl-piperidine-1-carbonyl)-biphenyl-4-ylmethyl]-1-morpholin-4-yl-pyrrolidin-2-one] | 7.17 | 82 | –
